Data taken from US20080234132A1, “Microcin B17 Analogs And Methods For Their Preparation And Use” (priority 2004, published 2008).

Columns and labels:
Human topoisomerase I = molecular target: T1, Human topoisomerase I (Homo sapiens, UniProt P11387); assay: Human topoisomerase I-mediated relaxation assay; type: biochemical; conditions: read-out: Topo I Human IC50
T1 construct: purchased TopoGEN Inc. (Port Orange, Fla., USA)
T1 sequence (P11387 1-765): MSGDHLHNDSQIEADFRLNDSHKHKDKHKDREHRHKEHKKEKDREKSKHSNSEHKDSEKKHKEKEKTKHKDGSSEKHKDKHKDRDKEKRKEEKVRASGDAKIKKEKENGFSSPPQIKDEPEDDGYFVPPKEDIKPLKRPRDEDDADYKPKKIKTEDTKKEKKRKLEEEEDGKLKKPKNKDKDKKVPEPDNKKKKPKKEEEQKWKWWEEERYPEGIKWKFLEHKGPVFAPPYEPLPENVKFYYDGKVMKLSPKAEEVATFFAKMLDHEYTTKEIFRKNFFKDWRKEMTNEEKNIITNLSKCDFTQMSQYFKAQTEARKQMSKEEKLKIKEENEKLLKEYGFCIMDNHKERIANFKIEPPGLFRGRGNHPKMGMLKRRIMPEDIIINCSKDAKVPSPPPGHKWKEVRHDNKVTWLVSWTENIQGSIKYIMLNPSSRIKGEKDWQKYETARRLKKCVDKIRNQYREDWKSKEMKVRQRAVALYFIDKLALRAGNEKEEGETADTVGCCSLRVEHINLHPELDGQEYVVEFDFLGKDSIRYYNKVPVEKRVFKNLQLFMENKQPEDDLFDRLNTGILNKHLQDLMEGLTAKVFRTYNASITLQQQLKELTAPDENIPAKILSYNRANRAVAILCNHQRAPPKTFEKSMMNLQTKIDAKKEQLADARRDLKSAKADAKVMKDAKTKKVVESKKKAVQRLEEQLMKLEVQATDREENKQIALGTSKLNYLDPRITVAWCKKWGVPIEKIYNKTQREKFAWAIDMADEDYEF
Experimental: Human topoisomerase I-mediated relaxation assays were performed as per the manufacturer's instructions. Topoisomerase I (2 nM) was added to reactions containing 10 mM of Tris.HCl, pH 7.9, 150 mM NaCl, 100 μM spermidine.HCl, 5% glycerol, 0.1% BSA, 4.6 nM of […] pBR322 DNA, and inhibitor where appropriate.
(§1) All in vitro reactions were incubated at 37° C. for 30 minutes. The DMSO concentration in each reaction was kept constant at 3.33%. Reactions were quenched with the addition of an equal volume of phenol/chloroform/isoamyl alcohol (25:24:1) and one tenth volume of loading buffer containing 40% sucrose, 100 mM Tris.HCl pH 7.5, 100 mM EDTA, 2 mg/mL bromophenol blue. The proteins were precipitated by vortexing, followed by centrifugation for 5 minutes at 16 000 g. The aqueous phase was loaded onto 1% agarose gels in Tris-acetate and were electrophoresed at 60 V for three hours in Tris-acetate buffer. The gels were stained in 1 μg/mL ethidium bromide. The gels were visualised using UV light and were documented and analysed using Syngene software.

Human topoisomerase IIα [1] = molecular target: T2, Human topoisomerase IIα (Homo sapiens, UniProt P11388); assay: Human Topoisomerase IIα decatenation assay; type: biochemical; design: purchased TopoGEN Inc. (Port Orange, Fla., USA); conditions: read-out: Topo IIα Human, D (decatenation reaction) IC50
T2 sequence (P11388 whole entry): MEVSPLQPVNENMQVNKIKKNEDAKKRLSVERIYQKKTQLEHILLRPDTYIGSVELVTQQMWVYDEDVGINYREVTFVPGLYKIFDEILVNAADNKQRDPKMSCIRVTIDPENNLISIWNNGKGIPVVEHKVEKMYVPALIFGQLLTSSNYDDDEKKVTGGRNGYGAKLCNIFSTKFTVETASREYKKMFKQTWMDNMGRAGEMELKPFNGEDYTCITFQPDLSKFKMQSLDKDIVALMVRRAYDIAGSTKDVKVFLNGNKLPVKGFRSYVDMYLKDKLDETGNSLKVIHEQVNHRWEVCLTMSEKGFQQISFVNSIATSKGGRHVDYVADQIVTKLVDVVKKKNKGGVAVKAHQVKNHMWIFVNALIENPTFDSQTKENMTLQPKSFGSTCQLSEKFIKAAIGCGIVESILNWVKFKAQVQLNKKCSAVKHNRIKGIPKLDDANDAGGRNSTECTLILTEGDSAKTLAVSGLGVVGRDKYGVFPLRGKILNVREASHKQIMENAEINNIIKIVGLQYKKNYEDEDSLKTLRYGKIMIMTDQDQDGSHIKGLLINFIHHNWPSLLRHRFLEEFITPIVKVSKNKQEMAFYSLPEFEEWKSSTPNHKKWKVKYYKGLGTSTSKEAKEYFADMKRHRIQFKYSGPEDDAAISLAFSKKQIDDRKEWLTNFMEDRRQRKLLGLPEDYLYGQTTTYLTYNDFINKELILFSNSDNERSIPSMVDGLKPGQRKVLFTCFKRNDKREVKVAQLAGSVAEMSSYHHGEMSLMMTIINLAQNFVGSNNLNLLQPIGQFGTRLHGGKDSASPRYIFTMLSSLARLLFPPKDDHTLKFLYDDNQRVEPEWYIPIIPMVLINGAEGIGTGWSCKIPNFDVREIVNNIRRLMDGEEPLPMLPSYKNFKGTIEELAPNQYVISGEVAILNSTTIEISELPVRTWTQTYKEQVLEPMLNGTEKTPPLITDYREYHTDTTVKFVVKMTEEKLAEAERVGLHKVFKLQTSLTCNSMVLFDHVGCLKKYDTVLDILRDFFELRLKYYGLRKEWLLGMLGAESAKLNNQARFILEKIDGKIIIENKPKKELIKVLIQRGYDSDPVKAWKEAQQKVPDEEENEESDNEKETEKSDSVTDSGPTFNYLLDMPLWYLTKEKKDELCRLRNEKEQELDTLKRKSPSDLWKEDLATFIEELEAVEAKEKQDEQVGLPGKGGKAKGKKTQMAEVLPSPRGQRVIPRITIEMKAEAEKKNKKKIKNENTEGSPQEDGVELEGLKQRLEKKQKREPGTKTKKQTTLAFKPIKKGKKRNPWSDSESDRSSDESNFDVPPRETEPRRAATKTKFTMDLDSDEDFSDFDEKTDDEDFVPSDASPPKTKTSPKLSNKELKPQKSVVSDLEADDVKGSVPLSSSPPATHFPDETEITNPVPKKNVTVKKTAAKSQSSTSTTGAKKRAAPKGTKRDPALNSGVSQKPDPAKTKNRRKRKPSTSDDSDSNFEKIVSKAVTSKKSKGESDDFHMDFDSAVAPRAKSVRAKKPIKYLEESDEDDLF
Experimental: (§2) Human Topoisomerase IIα-mediated relaxation assays and decatenation assays were performed as per the manufacturer's instructions in a total of 20 μL. Relaxation assays contained Topoisomerase IIα (4.3 nM), 50 mM Tris.HCl pH 8,120 mM KCl, 10 mM MgCl2, 0.5 mM DTT, 0.5 mM ATP, 4.6 nM of supercoiled pBR322 DNA, and inhibitor where appropriate. Decatenation assays substituted the supercoiled DNA with 200 ng catenated kinetoplast DNA.
as §1

Human topoisomerase IIα [2] = molecular target: T2, Human topoisomerase IIα; assay: Human Topoisomerase IIα-mediated relaxation assay; type: biochemical; design: purchased TopoGEN Inc. (Port Orange, Fla., USA); conditions: read-out: Topo IIα Human, R (relaxation reaction) IC50
Experimental: as §2, §1

[3] = tested on: Arabidopsis thaliana ecotype Columbia plants; assay: Effects on A. thaliana seedlings and plants; type: in vivo; conditions: Table 5-C
Experimental: The microcin derivatives were tested for efficacy in planta against Arabidopsis thaliana ecotype Columbia according to known methods (see Wall et al., 2004). Seeds were germinated on sterile media containing the appropriate peptide and the effects were observed over a three week period. […] In […] seeds, such as A. thaliana, during imbibition the quiescent seed rapidly resumes metabolic and respiratory activity. One of the first steps, as part of this process, is the initiation of mitochondrial DNA synthesis which requires DNA gyrase and which may explain the exquisite sensitivity of the germinating seeds to Peptides 1 and 2.
The leaf tissue initially turned yellow, followed by rapid necrosis of the tissue (see FIG. 32). […] The high hydrophility of Peptide 1 may preferentially allow the compound to readily diffuse through the leaf cuticle and epidermis to the mesophyll and phloem below.
The heterocyclic compounds were also spotted onto the leaves of 4 week old, tissue culture grown Arabidopsis thaliana ecotype Columbia plants (see FIG. 34, panels A-1). […] The browning and necrosis diffused through the full thickness of the leaf over the next 60 minutes (see FIG. 34, panel F) and spread towards the meristem (see FIG. 34, panels E, F, H). Complete necrosis of the meristem and newly emerged leaves, where organellar replication takes place, was complete within 24 hours (see FIG. 34, panel F).

E. coli [4] = assay: In vivo E. coli (Table 5-C summary of haloassays); type: cell-based; conditions: number = not active up to this concentration
Experimental: Lawns of cells were prepared by spreading, on top of a LB+Agar plate, 3 ml of melted LSS medium (half-agar strength: 0.3 g Agar/50 ml LB) inoculated with 100 μl of a 10 ml LB overnight culture of E. coli cells grown at 37° C. […] The plates were incubated at 37° C. overnight and growth inhibition was qualitatively analysed by measuring the diameter of each halo.

E. coli [5] = assay: In vivo E. coli activity (Table 5-C); type: cell-based; conditions: cell reads on: Active
Experimental: In vivo activity was tested using the bioassay developed by Sinha Roy, 1999, with some modifications. The Microcin-sensitive E. coli DH5α was used as the indicator strain. Lawns of cells were prepared by spreading 100 μL of a 10 mL LB culture grown at 37° C. overnight mixed with 3 mL of LSS, on LB+agar (10 g/L) plates. […] The plates were incubated at 37° C. overnight and halos of growth inhibition were qualitatively analyzed by determining their diameters (see FIG. 9).
Lawns of cells were prepared by spreading, on top of a LB+Agar plate, 3 ml of melted LSS medium (half-agar strength: 0.3 g Agar/50 ml LB) inoculated with 100 μl of a 10 ml LB overnight culture of E. coli cells grown at 37° C. Halo assays with MccB17 generally used a DH5α strain (Novagen) but the inventors used the standard E. coli strain (K12) because it is from this strain that the microcin B17-resistant mutant W751R was obtained. […] The plates were incubated at 37° C. overnight and growth inhibition was qualitatively analysed by measuring the diameter of each halo.
Haloassays were performed as described above.

E. coli Topoisomerase IV = E. coli Topoisomerase IV (Escherichia coli, UniProt P0AFI2+P20083); assay: biochemical; type: biochemical; design: purchased John Innes Enterprises (Norwich, UK)
E. coli Topoisomerase IV, sequence (P20083 whole entry): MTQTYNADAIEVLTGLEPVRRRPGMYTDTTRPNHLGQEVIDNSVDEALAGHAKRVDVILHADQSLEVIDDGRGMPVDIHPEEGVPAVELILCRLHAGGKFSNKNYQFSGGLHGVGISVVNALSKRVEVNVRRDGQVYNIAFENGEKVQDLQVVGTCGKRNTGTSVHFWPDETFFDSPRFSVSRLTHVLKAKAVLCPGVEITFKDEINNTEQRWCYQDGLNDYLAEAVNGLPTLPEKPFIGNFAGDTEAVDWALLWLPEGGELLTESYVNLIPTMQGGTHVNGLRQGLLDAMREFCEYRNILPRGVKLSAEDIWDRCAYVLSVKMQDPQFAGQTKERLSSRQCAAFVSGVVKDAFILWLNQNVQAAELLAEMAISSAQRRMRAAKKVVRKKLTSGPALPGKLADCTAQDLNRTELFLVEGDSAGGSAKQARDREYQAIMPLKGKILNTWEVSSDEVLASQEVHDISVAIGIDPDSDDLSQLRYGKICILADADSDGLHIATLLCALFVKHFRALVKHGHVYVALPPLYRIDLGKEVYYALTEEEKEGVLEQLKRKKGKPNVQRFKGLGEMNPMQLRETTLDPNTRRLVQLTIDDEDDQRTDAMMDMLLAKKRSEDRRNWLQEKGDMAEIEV
E. coli Topoisomerase IV, sequence (P0AFI2 whole entry): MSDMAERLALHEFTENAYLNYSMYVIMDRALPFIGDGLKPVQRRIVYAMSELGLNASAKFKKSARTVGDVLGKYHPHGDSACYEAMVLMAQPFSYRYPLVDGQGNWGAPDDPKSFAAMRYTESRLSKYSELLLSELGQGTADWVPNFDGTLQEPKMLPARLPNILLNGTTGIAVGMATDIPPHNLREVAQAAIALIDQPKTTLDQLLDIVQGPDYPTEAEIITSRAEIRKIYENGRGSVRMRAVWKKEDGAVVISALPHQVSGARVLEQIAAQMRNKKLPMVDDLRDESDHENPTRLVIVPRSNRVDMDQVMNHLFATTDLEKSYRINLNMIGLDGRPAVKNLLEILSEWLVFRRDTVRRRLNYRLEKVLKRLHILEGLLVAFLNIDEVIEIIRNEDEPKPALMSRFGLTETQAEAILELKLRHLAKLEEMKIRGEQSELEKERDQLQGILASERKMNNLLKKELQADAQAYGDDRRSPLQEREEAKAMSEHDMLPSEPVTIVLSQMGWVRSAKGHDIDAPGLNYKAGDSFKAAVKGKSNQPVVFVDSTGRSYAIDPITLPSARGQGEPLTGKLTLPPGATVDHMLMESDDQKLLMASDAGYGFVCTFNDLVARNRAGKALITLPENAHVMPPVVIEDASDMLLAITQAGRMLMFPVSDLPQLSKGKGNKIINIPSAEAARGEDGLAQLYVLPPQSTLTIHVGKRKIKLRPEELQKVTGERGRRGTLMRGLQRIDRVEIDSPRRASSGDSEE
Experimental: Topoisomerase IV-mediated relaxation assays and decatenation assays were performed as previously described (see Peng and Marians, 1993). […] Decatenation assays contained topoisomerase IV (4 nM), 40 mM Tris HCl pH 7.5 at 30° C., 6 mM MgCl2, 10 mM DTT, 1 mM spermidine.HCl, 100 mM potassium glutamate, 0.5 mM ATP, 0.5 mg/mL BSA, 200 ng of kinetoplast DNA, and inhibitor where appropriate.

Compound: CC(C)(C)OC(=O)NCc1nc(C(=O)O)co1 [#6]
- IC50 (Human topoisomerase I): > 300 µM
- IC50 (Human topoisomerase IIα [1]): > 250 µM
- IC50 (Human topoisomerase IIα [2]): > 250 µM
- In vivo Plants, P (whole plants, expanded Arabidopsis leaves) [3]: P > 300 μM
- In vivo E. coli (E. coli [4]): (→400 μM)
- In vivo E. coli activity, up to 400 μM (E. coli [5]): Not
- Topo IV, D (decatenation reaction) IC50 (E. coli Topoisomerase IV): weakly
- IC50 (E. coli Topoisomerase IV; read-out: Topo IV, D (decatenation reaction) IC50): 200 µM
